Test results taken from PubChem BioAssay (NCI).
“And” between values parts separate entries of the source, which are not always exact repeats. Equal values may be shown once.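 Each compound was tested at five concentrations against cells in 96-well plates for 48 hours. GI50 is the concentration that inhibits growth by half. TGI denotes the concentration required for complete inhibition of growth.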

Legend:
Assay in all cases: NCI tumour cell line growth inhibition, 48 h
DMS 114 small cell lung = tested on: DMS 114 small cell lung
DMS 273 small cell lung = tested on: DMS 273 small cell lung
MDA-MB-435 = tested on: MDA-MB-435
MCF7 breast = tested on: MCF7 breast
LXFL 529 NSCLC = tested on: LXFL 529 NSCLC
DU-145 prostate = tested on: DU-145 prostate
NCI/ADR-RES ovarian = tested on: NCI/ADR-RES ovarian
SNB-78 CNS = tested on: SNB-78 CNS
PC-3 prostate = tested on: PC-3 prostate

Row | SMILES | TGI (DMS 114 small cell lung) | TGI (DMS 273 small cell lung) | TGI (MDA-MB-435) [µM] | TGI (MCF7 breast) [µM] | TGI (LXFL 529 NSCLC) | TGI (DU-145 prostate) [µM] | TGI (NCI/ADR-RES ovarian) [µM] | TGI (SNB-78 CNS) | TGI (PC-3 prostate) [µM] | GI50 (DMS 114 small cell lung)
1 | O=C1C=C(c2c(O)ccc3ccccc23)c2ccccc2C1=O | 6.71 µM | 11.3 µM | 5.86 | 2.11 | 2.96 µM | 24 | 8.96 | 8.64 µM | 4.2 | –
2 | COc1cc(C2c3cc4c(cc3[C@@H](Nc3ccc(C(=O)O)cc3)C3COC(=O)[C@H]23)OCO4)cc(OC)c1O (stereo not given in full) | 47.8 µM and > 17.5 µM | 28.5 µM and > 17.5 µM | – | – | 39.8 µM and > 17.5 µM | – | – | 92.7 µM and 17.4 µM | – | 13.9 µM and 5.44 µM
3 | COc1ccc(NC(=O)C2C(=O)N(c3ccc(OC)cc3)C(=O)/C2=N/O)cc1 (stereo not given) | > 100 µM | > 81.1 µM | – | – | > 75 µM | – | – | > 100 µM | – | –
4 | O=C(Nc1ccccc1)c1ccc(Cl)c([N+](=O)[O-])c1 | 33.2 µM | 14.2 µM | – | – | 18.5 µM | – | – | 83.9 µM | – | –
5 | CC(=O)N/C(=C\c1ccc(/C=C(\NC(C)=O)c2nc3ccc(Cl)cc3[nH]2)cc1)c1nc2ccccc2[nH]1 | > 100 µM | > 100 µM | – | – | > 100 µM | – | – | > 100 µM | – | –
6 | COc1ccc(-c2c(C3=NCCN3)nnn2-c2ccccc2)cc1 | > 100 µM | > 100 µM | – | – | > 100 µM | – | – | > 100 µM | – | –
